Results taken from US9302991B2, “Arylamide derivatives as TTX-S blockers” (RaQualia Pharma Inc., priority 2010, dated 2016).

Tests used:
[1] = system: CCI-induced static allodynia in rats; assay: Chronic Constriction Injury (CCI)-induced static allodynia in rats; format: in vivo, Sprague-Dawley rats; details: 100 mg/kg per os
Method: Chronic Constriction Injury (CCU-Induced Static Allodynia in Rats
Male Sprague-Dawley rats at 7 weeks old are purchased from Charles River Japan Inc., and housed in groups of two per cage under a 12-h light/dark cycle (lights on at 07:00) with access to food and water ad libitum. CCI-induced static allodynia is assessed by von Frey hair (VFH) test. Surgery is performed according to the method of Bennett G J and Xie Y K (Pain 1988, 33: 87-107). The animals are anesthetized with intraperitoneal injection of pentobarbital sodium. The left common sciatic nerve is exposed at the level of the middle of the thigh, freed of adhering tissue, and four ligatures are loosely tided around it by using 4-0 silk thread. The incision is sutured, and the rats are allowed to recover in their cages with soft bedding. Sham operation is performed in the same manner except of sciatic nerve ligation. The animals are individually placed in a Plexiglas test chamber on an elevated grid to acclimate for 1 hour before the day of testing. […]
In the cases where continuous positive or negative responses are observed all the way out to the end of the stimulus spectrum, values of 0.25 and 15 g are assigned, respectively. […] The 50% PWT is measured at the appropriated time after compound administration.

[2] = biological target: T1, human Nav1.3 (hSCN3A) (Homo sapiens, UniProt Q9NY46); assay: Electrophysiology assay for Navs, whole cell patch clamp, Nav1.3; format: cell-based; details: Kinact, dissociation constant for the inactivated state, read-out: activities (Ki) against Nav1.3
T1 construct: expressed in transfected cells; host or cells: HEK293
T1 sequence (Q9NY46 whole entry): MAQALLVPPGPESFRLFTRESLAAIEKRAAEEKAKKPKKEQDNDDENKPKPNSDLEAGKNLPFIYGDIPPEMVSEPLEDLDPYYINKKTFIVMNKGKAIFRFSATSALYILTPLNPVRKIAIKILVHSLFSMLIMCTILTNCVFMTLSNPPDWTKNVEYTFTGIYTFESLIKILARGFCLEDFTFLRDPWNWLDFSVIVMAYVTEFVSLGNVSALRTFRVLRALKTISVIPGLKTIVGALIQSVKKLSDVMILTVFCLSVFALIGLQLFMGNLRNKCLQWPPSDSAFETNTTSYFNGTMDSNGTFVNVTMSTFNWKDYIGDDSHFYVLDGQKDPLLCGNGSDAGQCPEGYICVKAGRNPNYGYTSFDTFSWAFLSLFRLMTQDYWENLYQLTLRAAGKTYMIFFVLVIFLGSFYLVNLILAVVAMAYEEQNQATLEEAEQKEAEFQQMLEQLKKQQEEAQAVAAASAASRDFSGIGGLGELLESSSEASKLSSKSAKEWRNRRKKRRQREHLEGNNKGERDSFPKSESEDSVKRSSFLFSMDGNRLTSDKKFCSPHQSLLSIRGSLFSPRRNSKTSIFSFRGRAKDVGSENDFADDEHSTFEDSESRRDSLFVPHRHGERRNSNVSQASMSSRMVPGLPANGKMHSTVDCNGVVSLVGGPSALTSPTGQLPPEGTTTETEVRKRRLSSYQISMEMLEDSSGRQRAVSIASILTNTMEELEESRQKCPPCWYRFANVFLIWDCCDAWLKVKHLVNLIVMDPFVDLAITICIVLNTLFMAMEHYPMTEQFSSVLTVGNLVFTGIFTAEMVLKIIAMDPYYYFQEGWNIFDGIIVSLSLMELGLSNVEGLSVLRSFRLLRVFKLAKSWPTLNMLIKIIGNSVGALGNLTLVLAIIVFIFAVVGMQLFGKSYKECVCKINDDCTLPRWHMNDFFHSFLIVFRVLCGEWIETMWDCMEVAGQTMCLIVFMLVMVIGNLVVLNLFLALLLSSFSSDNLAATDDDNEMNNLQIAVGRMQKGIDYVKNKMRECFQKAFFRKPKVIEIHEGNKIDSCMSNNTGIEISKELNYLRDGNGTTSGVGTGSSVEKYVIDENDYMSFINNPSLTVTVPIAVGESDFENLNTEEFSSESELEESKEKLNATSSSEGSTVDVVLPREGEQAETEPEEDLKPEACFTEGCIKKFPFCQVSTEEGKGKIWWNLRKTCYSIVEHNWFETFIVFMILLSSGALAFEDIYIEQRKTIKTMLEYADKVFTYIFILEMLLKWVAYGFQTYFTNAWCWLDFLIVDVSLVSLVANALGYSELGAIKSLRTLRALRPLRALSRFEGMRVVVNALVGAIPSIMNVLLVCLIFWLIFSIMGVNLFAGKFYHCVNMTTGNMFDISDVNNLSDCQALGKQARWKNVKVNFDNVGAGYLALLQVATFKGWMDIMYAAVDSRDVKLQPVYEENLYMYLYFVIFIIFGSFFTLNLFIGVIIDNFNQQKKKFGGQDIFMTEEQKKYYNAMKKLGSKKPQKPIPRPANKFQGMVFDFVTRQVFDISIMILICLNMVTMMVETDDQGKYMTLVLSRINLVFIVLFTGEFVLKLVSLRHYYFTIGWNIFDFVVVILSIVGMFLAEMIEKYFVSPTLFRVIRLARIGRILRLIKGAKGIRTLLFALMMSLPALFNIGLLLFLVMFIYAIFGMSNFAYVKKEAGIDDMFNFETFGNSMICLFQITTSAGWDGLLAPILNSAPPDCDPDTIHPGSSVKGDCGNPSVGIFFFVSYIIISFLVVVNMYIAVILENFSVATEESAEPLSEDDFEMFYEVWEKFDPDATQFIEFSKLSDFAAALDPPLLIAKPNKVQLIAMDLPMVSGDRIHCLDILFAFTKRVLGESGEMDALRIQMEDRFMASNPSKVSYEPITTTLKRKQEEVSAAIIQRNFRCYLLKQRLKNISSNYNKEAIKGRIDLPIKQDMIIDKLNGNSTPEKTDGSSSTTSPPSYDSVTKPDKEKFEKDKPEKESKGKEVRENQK
Method: Electrophysiology Assay for Navs
Whole cell patch clamp recording is used to assess the efficacy or selectivity of Na channel blocker on human Nav1.3 (hSCN3A) expressing HEK293 cells or human Nav1.7 (hSCN9A) expressing CHO cells. Human Nav1.3 expressing HEK293 cells are grown in growth media which comprised: DMEM, 10% heat-inactivated FBS (Hyclone Laboratories Inc), 100 microgram/mL Penicillin/100 U/mL Streptomycin, 150 microgram/mL Zeocin, 3 microgram/mL Geneticin. Human Nav1.7 expressing CHO cells are grown in growth media which comprised: HAM/F-12, 9% heat-inactivated FBS (Hyclone Laboratories Inc), 100 microgram/mL Penicillin/100 U/mL Streptomycin, 100 microgram/mL Hygromycin.
Na channel expressing cells are dissociated by 0.05% Trypsine-EDTA, and then seeded on cover glass for 24-48 hr. […]
The normalized steady-state inactivation curve is constructed using 2 sec (for vehicle) or 60 sec (for drugs) conditioning pulse to different potentials followed immediately by the test pulse to −10 mV. […] The affinity of drugs to resting state of Na channels (Kresting or Kr) is assessed by 30 msec test pulse from a negative holding potential of −120 or −130 mV, where virtually all channels are in the resting state. Kr value is calculated by a conventional 1:1 binding model: Kresting(Kr)={[drug]Imax,drug/(Imax,control−Imax,drug)} […]

## CC(=O)Nc1cc(C(=O)NC(C)c2ccc(OCC(F)(F)F)nc2)ccn1 (single isomer, unassigned; (-)) [Example 1, (−)-2-acetamido-N-(1-(6-(2,2,2-trifluoroethoxy)pyridin-3-yl)ethyl)isonicotinamide]
[1]
  activity in CCI-induced static allodynia (50% PWT, von Frey hair test): potent activity
[2]
  Ki: 1500 nM
